In ChEMBL document CHEMBL1133386, “Synthesis and antitumor activities of 5-methyl-1- and 2-[[2-dimethylaminoethyl]amino]-aza-thiopyranoindazoles” (Bioorg Med Chem Lett, 2000):
In brackets after ≈: the same amount, converted by molar mass.

Legend:
LoVo [1] = assay: In vitro cytotoxic activity against human colon adenocarcinoma (LoVo) cells; format: functional, cell-based
LoVo [2] = assay: In vitro cytotoxic activity against human colon adenocarcinoma resistant to doxorubicin (LoVo Dx) cells; format: functional, cell-based
[3] = Resistance index was determined by ratio of cytotoxicities of human colon adenocarcinoma (LoVo) cells to human colon adenocarcinoma resistant to doxorubicin (LoVo Dx) cells.; format: functional
L1210 = assay: In vitro cytotoxic activity against murine leukemia L1210 cells.; format: functional, cell-based; conditions: Mus musculus
[4] = In vitro cytotoxic activity against sarcoma resistant to doxorubicin S-180 Dx cells.; format: functional, cell-based; conditions: Mus musculus
[5] = In vitro cytotoxic activity against sarcoma S-180 cells.; format: functional, cell-based; conditions: Mus musculus
LoVo [6] = assay: In vitro cytotoxic activity against human colon adenocarcinoma (LoVo) cells.; format: functional, cell-based
LoVo [7] = assay: In vitro cytotoxic activity against human colon adenocarcinoma resistant to doxorubicin (LoVo Dx) cells.; format: functional, cell-based

| SMILES | IC50 (LoVo [1]) [µg/mL] | IC50 (LoVo [2]) [µg/mL] | Resistance index [3] | IC50 (L1210) [µg/mL] | IC50 [4] [µg/mL] | IC50 [5] [µg/mL] | IC50 (LoVo [6]) [µg/mL] | IC50 (LoVo [7]) [µg/mL] |
| --- | --- | --- | --- | --- | --- | --- | --- | --- |
| Cc1ccc2c3c(nn2CCN(C)C)-c2ccccc2Sc13 | 0.7 (≈ 2.26 µM) | 1.7 (≈ 5.49 µM) | 2.4 | 0.07 (≈ 0.226 µM) | – | – | – | – |
| Cc1ccc2nn(CCN(C)C)c3c2c1Sc1cnccc1-3 | – | – | – | 0.25 (≈ 0.805 µM) | 0.4 (≈ 1.29 µM) | 0.35 (≈ 1.13 µM) | – | – |
| Cc1ccc2c3c(nn2CCN(C)C)-c2cccnc2Sc13 | – | – | 1.1 | 0.08 (≈ 0.258 µM) | 0.62 (≈ 2 µM) | 0.46 (≈ 1.48 µM) | 3.1 (≈ 9.99 µM) | 3.3 (≈ 10.6 µM) |
| Cc1ccc2c3c(nn2CCN(C)C)-c2ccncc2Sc13 | – | – | 1 | 0.045 (≈ 0.145 µM) | 0.7 (≈ 2.25 µM) | 0.08 (≈ 0.258 µM) | 2.3 (≈ 7.41 µM) | 2.3 (≈ 7.41 µM) |
| Cc1ccc2nn(CCN(C)C)c3c2c1Sc1ncccc1-3 | – | – | – | 0.26 (≈ 0.838 µM) | 0.33 (≈ 1.06 µM) | 0.3 (≈ 0.966 µM) | – | – |
| Cc1ccc2c3c(nn2CCN(C)C)-c2cnccc2Sc13 | – | – | 4.5 | 0.0006 (≈ 0.00193 µM) | 0.009 (≈ 0.029 µM) | 0.003 (≈ 0.00966 µM) | 0.004 (≈ 0.0129 µM) | 0.018 (≈ 0.058 µM) |
| Cc1ccc2nn(CCN(C)C)c3c2c1Sc1ccccc1-3 | – | – | – | 0.25 (≈ 0.808 µM) | 0.75 (≈ 2.42 µM) | 0.5 (≈ 1.62 µM) | – | – |
| COc1cccc2c1C(=O)c1c(O)c3c(c(O)c1C2=O)C[C@@](O)(C(=O)CO)C[C@@H]3O[C@H]1C[C@H](N)[C@H](O)[C@H](C)O1 [DOXORUBICIN] | 0.52 (≈ 0.957 µM) | – | 97 | – | – | – | – | – |
| O=C1c2c(O)ccc(O)c2C(=O)c2c(NCCNCCO)ccc(NCCNCCO)c21 [MITOXANTRONE] | 0.023 (≈ 0.0517 µM) | – | 27 | – | – | – | – | 0.62 (≈ 1.39 µM) |
